Earlier results, collected in patent US20100055040A1, “Optical Imaging Contrast Agents” (priority 2005, published 2010).

What was measured:
ulcerated gastric mucosa = settings: humans; ulcerated vs unulcerated gastric mucosa
[1] = gastrointestinal tract

## α-D-glucopyranoside, β-D-fructofuranosyl-, octakis-(hydrogen sulfate), aluminum complex [Sucralfate]
Ulcerated gastric mucosa
  times more sucralfate binds to ulcerated gastric mucosa than to unulcerated mucosa: six to seven
[1]
  absorption by the body: only minimally absorbed
